We go through one molecule from US5650442A (priority 1994, dated 1997).

The structures appear in SMILES notation.

Data set [1] relates to Chinese hamster V79 lung fibroblasts. Briefly: Radiation survival of hypoxic V79 cells (metabolism-mediated oxygen depletion), clonogenic assay, SER. The format is cell-based. The settings on record: hypoxic; for SER: 1% surviving fraction level. The method, then:
Chinese hamster V79 lung fibroblasts were cultured in F12 medium supplemented with 10% fetal calf serum and antibiotics. […] The assay system was specifically designed to evaluate radiation sensitivity of cells exposed to radiation under both aerobic and hypoxic conditions (Mitchell et al., Radiat. Res., 96, 422-428 (1983); Russo et al., Radiat. Res., 103, 232-239 (1985); and DeGraff et al., Int. J. Radiat. Oncol. Biol. Phys., 16, 1021-1024 (1989)).
When cultured cells were exposed to DEA/NO in subsequent examples, DEA/NO in F12 medium with 10 mM HEPES buffer, pH 7.0, was used. […] Control cells in subsequent examples were exposed to 0.02N NaOH, instead of DEA/NO.
The induction of hypoxia in dense cell suspensions by metabolism-mediated oxygen depletion was carried out as described by Mitchell et al. (supra) and Phillips et al. (Int. J. Radiat. Oncol. Biol. Phys., 12, 1627-1635 (1986)). Briefly, stock cultures of exponentially growing Chinese hamster V79 lung fibroblasts in 850 cm^2 roller bottles were trypsinized, rinsed with medium, and counted. Samples of 10^8 cells were then placed in 15 ml centrifuge tubes, centrifuged at 1,000 rpm for 5 min at 25° C., and rinsed once with medium or medium containing DEA/NO (final concentrations ranging from 0.1-2.0 mM), nitrite, diethylamine, or DEA/NO that had been allowed to decompose in full medium overnight at 37° C.
The cell suspension was taken up into a 3 ml glass syringe with a 18 gauge spinal needle. Air bubbles were removed, and a 25 gauge needle was fitted onto the syringe. The syringe was rotated by hand at room temperature for 20 min to allow for cellular metabolic oxygen consumption. The syringe was then placed in a lucite block and irradiated. After a given dose of radiation, 1-3 drops of cell suspension were discarded, and 1-2 drops were collected in tubes containing drug-free medium. In this manner an entire hypoxic survival curve for a given treatment condition can be obtained from a single syringe.
Hypoxic Chinese hamster V79 lung fibroblasts of Example 2 were irradiated at room temperature with 4 MeV photons from a linear accelerator at a dose rate of 1.5 Gy/min. Full electron equilibrium was ensured for all irradiations.
Following irradiation, the various cell suspensions were pipetted, counted, diluted, and plated for macroscopic colony formation. Each dose determination was plated in triplicate and experiments were repeated a minimum of two times. Plates were incubated for seven days, after which colonies were fixed with methanol/acetic acid (3:1), stained with crystal violet, and counted. Colonies containing >50 cells were scored and graphed as FIGS. 1-3. Error bars in the graphs represent the standard deviation of the mean and are shown when larger than the symbol used to designate a data point. Survival curve data were fitted using a linear quadratic model of Albright (Radiat. Res., 112, 331-340 (1987)), and the survival curves shown in the figures represent the best fit curves for the experimental data points. Sensitizer enhancement ratios (SER) were calculated by dividing the radiation dose for control hypoxic conditions by the radiation dose for various agents under hypoxic conditions at the 1% surviving fraction level.
Radiation survival curves for V79 cells exposed to varying concentrations of DEA/NO and various DEA/NO decomposition products under hypoxic conditions (metabolic hypoxia induction) are shown in FIG. 1A, which is a graph of the surviving fraction versus dose (Gy).

Data set [2] has as its system KHT tumors. Briefly: In vivo radiosensitization of KHT tumors (regrowth delay). Further details: species or system C3H mice. The method, then:
This murine model is one which is routinely used to test hypoxic radiosensitizers. In fact, results obtained with this model were used as a basis for initiating clinical trials of nitroimidazoles as radiation sensitizers in the early to mid-1970's.
C3H mice with hind leg implants of KHT tumors were exposed to radiation. When the tumors had grown to 8 mm in circumference, the mice were treated with DEA/NO alone (control), 15 cGy directed at the tumor, or DEA/NO given 30 minutes before tumor irradiation with 15 cGy (DEA/NO (30 min)). The mice experienced a tumor regrowth delay of one day after treatment of the tumor with 15 cGy.

For data set [3], the system named is C3H mice. Briefly: Protection of mice from whole body irradiation. It is filed as in vivo. The note with it: for Percent survival of mice at 30 days: 1100 cGy. An excerpt: Female C3H mice were obtained from the Frederick Cancer Research Center--Animal Production in Frederick, Md. C3H mice have been used in whole body irradiation studies since 1948 (Patt, et al., Science, 110, 213-214 (1949)) and are considered to serve as good models for predicting the effects of radiation in humans.
C3H mice were received at six weeks of age and were housed five per cage in climate-controlled, circadian rhythm-adjusted rooms and allowed food and water ad libitum. The animals were 60-80 days old at the time of radiation. A total of 10-15 mice were used per radiation dose. Mice were weighed in groups of five. The weights of each group ranged from 110 grams to 135 grams or an average weight of 22-27 grams per mouse.
In all experiments drugs and diluent (in control mice) were injected intraperitoneally into mice in volumes equivalent to 1% of each animal's weight (0.22 to 0.27 ml). Groups of 5-10 mice were placed in round (30.5 cm diameter and 10.5 cm height) Plexiglas containers with holes for ventilation for irradiation. The irradiator was calibrated with thermoluminescent dosimetry chips planted in phantom mice, and the radiation dose was determined according to previously described methodology (Cameron et al., "Thermoluminescent Dosimetry" (Univ. of Wisconsin Press, Madison, Wis., 1968)). The dose rate used was 1 Gy/min. Total time of irradiation varied as a function of the dose delivered. Immediately after irradiation, the mice were separated into groups of five and returned to climate-controlled cages for observation. The mice were assessed daily for survival.
The results are shown in FIG. 7, which is a graph of percent surviving versus days after irradiation with 11 Gy for control mice (.box-solid., n=10), which were injected with saline, mice treated with DEA/NO 10 minutes prior to irradiation (.largecircle., n=15), and mice treated with DEA/NO 30 minutes prior to irradiation (.circle-solid., n=15).

In data set [4] the test system is Chinese hamster V79 lung fibroblasts. Briefly: Radiation survival of hypoxic V79 cells (metabolism-mediated oxygen depletion), clonogenic assay, SER. The format is cell-based. The note with it: 0.05 mM, 1% surviving fraction level.
Data set [5] concerns Chinese hamster V79 fibroblasts. Briefly: Chemosensitization of V79 cells to bioreductive agents (mitomycin C, SR 4233).

`CCN(CC)/[N+]([O-])=N/[O-].[Na+]` [DEA/NO]: the extent of radiosensitization result in data set [1] (0.1 mM) was “modest”; in data set [1] (0.5 and 1.0 mM), “significant enhancement was observed”. For the same molecule, the SER is recorded as 1.1 ± 0.06 in data set [1] (0.10 mM, ± SD); 2.1 ± 0.40 in data set [1] (0.50 mM, ± SD); 2.4 in data set [1] (1.00 mM); 2.9±0.4 in data set [1] (2.00 mM, ± SD); 1.0 in data set [4]. Also, in data set [1] (2.0 mM), the “effectiveness in eliminating radiation resistance due to hypoxia” value is given as “just as effective as oxygen in eliminating radiation resistance due to hypoxia”. Moreover, the tumor regrowth delay in data set [2] (80 mg/kg 30 min before 15 cGy tumor irradiation) is given as 8 days. The “survival with no evidence of tumor” value in data set [2] (DEA/NO (30 min) group, 15 cGy) is listed as “Two animals in the DEA/NO (30 min) group survived for at least four weeks with no evidence of tumor”. For the same molecule, the tumors eradicated in data set [2] (DEA/NO before 15 cGy, n=14) is given as 14%. Also, in data set [3] (80 mg/kg i.p. before irradiation), the “protection from whole body irradiation” value is “protected mice from whole-body irradiation”. The “Percent survival of mice at 30 days” value in data set [3] (80 mg/kg i.p. 10 min before) is recorded as 44%; in data set [3] (80 mg/kg i.p. 30 min before) it was 60%. Also, the “enhancement of hypoxic cytotoxicity of SR 4233” value in data set [5] (25 μm SR 4233, 1 mM, hypoxic, 1 hr) is on record as “enhance the hypoxic cytotoxicity of SR 4233”. For the same molecule, the “enhancement of mitomycin C cytotoxicity” value in data set [5] (aerobic and hypoxic conditions) is “enhanced cytotoxicity under both aerobic and hypoxic conditions”.
